Measurements from ChEMBL document CHEMBL1201862, “PubChem BioAssay data set” (2004).
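A five-concentration, 48-hour dose response in 96-well plates underlies each endpoint, interpolated linearly between surrounding concentrations. The concentration for 50% growth inhibition is given as GI50.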 The source made the active and inactive calls. No stated cut-off is given here; in the data, active = GI50 up to about 1.1 µM and inactive = higher.

Columns and labels:
Test in all cases: inhibition of tumour cell growth, NCI panel, 48 h
RXF 631 = test system: RXF 631
XF498 = test system: XF498
KM-20L2 = test system: KM-20L2
SNB-78 = test system: SNB-78
DMS-273 = test system: DMS-273
M19-MEL = test system: M19-MEL
DMS-114 = test system: DMS-114
LXFL 529 = test system: LXFL 529
HOP-18 = test system: HOP-18

Cc1cc(C)nc(NS(=O)(=O)c2ccc(Nc3c4ccc(Cl)cc4nc4c(C(=O)NCCN(C)C)cccc34)cc2)n1
GI50 (RXF 631): > 100 µM (inactive) | GI50 (XF498): > 100 µM (inactive) | GI50 (KM-20L2): > 100 µM (inactive) | GI50 (SNB-78): > 100 µM (inactive) | GI50 (DMS-273): > 100 µM (inactive) | GI50 (M19-MEL): > 100 µM (inactive) | GI50 (DMS-114): > 100 µM (inactive) | GI50 (LXFL 529): > 100 µM (inactive)

C/N=C(\NC(=S)N(C)C)N(C)C
GI50 (RXF 631): > 100 µM (inactive) | GI50 (XF498): > 100 µM (inactive) | GI50 (KM-20L2): > 100 µM (inactive) | GI50 (SNB-78): > 100 µM (inactive) | GI50 (DMS-273): > 100 µM (inactive) | GI50 (HOP-18): > 100 µM (inactive) | GI50 (M19-MEL): > 100 µM (inactive) | GI50 (DMS-114): > 100 µM (inactive) | GI50 (LXFL 529): > 100 µM (inactive)

CC1(C)C(=O)/C=C\C(=O)C(C)(C)C2=CC=C(O2)C(C)(C)C(=O)/C=C\C(=O)C(C)(C)C2=CC=C1O2
GI50 (XF498): > 100 µM (inactive) | GI50 (KM-20L2): > 100 µM (inactive) | GI50 (SNB-78): > 100 µM (inactive) | GI50 (DMS-273): > 100 µM (inactive) | GI50 (HOP-18): > 100 µM (inactive) | GI50 (M19-MEL): > 100 µM (inactive) | GI50 (LXFL 529): > 100 µM (inactive)

CC(=O)OCc1cc(OC(C)=O)cnc1COC(C)=O
GI50 (RXF 631): > 100 µM (inactive) | GI50 (XF498): > 100 µM (inactive) | GI50 (KM-20L2): > 100 µM (inactive) | GI50 (DMS-273): > 100 µM (inactive) | GI50 (HOP-18): > 100 µM (inactive) | GI50 (M19-MEL): > 100 µM (inactive) | GI50 (DMS-114): > 100 µM (inactive) | GI50 (LXFL 529): > 100 µM (inactive)

O=C(O)CSc1nnc(/C=C/c2ccccc2)[nH]1
GI50 (XF498): > 100 µM (inactive) | GI50 (KM-20L2): > 100 µM (inactive) | GI50 (SNB-78): > 100 µM (inactive) | GI50 (DMS-273): > 100 µM (inactive) | GI50 (HOP-18): > 92.7 µM (inactive) | GI50 (M19-MEL): > 100 µM (inactive) | GI50 (DMS-114): > 64.3 µM (inactive) | GI50 (LXFL 529): > 100 µM (inactive)

CC(C)[C@](O)(C(=O)OCC1=CC[N+]2([O-])CC[C@@H](O)[C@@H]12)[C@H](C)O (stereo not given in full) [INDICINE N-OXIDE]
GI50 (KM-20L2): > 10000 µM (inactive) | GI50 (SNB-78): > 10000 µM (inactive) | GI50 (DMS-273): 6080 µM (inactive) | GI50 (HOP-18): > 10000 µM (inactive) | GI50 (M19-MEL): > 10000 µM (inactive)

C/C(CN1C(=O)c2ccccc2C1=O)=N\NS(=O)(=O)c1ccc2ccccc2c1
GI50 (KM-20L2): > 100 µM (inactive) | GI50 (SNB-78): > 100 µM (inactive) | GI50 (DMS-273): > 100 µM (inactive) | GI50 (HOP-18): > 100 µM (inactive) | GI50 (M19-MEL): > 100 µM (inactive) | GI50 (DMS-114): > 100 µM (inactive) | GI50 (LXFL 529): > 100 µM (inactive)

COc1ccc(/C=C/c2onc3c(=O)n(C)nc(-c4ccccc4)c23)cc1
GI50 (XF498): 37 µM (inactive) | GI50 (KM-20L2): > 100 µM (inactive) | GI50 (DMS-273): > 100 µM (inactive) | GI50 (HOP-18): > 100 µM (inactive) | GI50 (M19-MEL): > 100 µM (inactive) | GI50 (DMS-114): > 100 µM (inactive) | GI50 (LXFL 529): > 100 µM (inactive)

CCCCN(CCCC)CCCCNc1c(C)cnc2cc(Cl)ccc12
GI50 (RXF 631): 13.7 µM (inactive) | GI50 (XF498): 14.4 µM (inactive) | GI50 (KM-20L2): 11.3 µM (inactive) | GI50 (SNB-78): 55.3 µM (inactive) | GI50 (HOP-18): 23 µM (inactive) | GI50 (M19-MEL): 32.5 µM (inactive) | GI50 (DMS-114): 15.9 µM (inactive) | GI50 (LXFL 529): 31 µM (inactive)

CN1CCC(c2c(O)cc(O)c3c(=O)cc(-c4ccccc4Cl)oc23)C(O)C1 (stereo not given)
GI50 (XF498): 0.0492 µM (active) | GI50 (KM-20L2): 0.217 µM (active) | GI50 (SNB-78): 0.118 µM (active) | GI50 (DMS-273): 0.0335 µM (active) | GI50 (HOP-18): 0.102 µM (active) | GI50 (LXFL 529): 0.0769 µM (active)

CN(C)CCNC(=O)c1ccc(C(=O)NCCN(C)C)c2nc3ccccc3cc12
GI50 (RXF 631): 1 µM (active) | GI50 (KM-20L2): 0.568 µM (active) | GI50 (SNB-78): 1.05 µM (active) | GI50 (DMS-273): 0.538 µM (active) | GI50 (HOP-18): 1.95 µM (inactive) | GI50 (M19-MEL): 0.8 µM (active) | GI50 (DMS-114): 0.553 µM (active) | GI50 (LXFL 529): 0.729 µM (active)

O=C1/C(=C/c2ccc(C(=O)O)cc2)CNC/C1=C\c1ccc(C(=O)O)cc1
GI50 (RXF 631): > 100 µM (inactive) | GI50 (XF498): > 100 µM (inactive) | GI50 (KM-20L2): > 100 µM (inactive) | GI50 (SNB-78): > 100 µM (inactive) | GI50 (DMS-273): > 100 µM (inactive) | GI50 (HOP-18): > 100 µM (inactive) | GI50 (M19-MEL): > 100 µM (inactive) | GI50 (DMS-114): > 100 µM (inactive) | GI50 (LXFL 529): > 100 µM (inactive)

Cc1ccc(C2CC(c3ccco3)=NN2c2ccccc2)o1 (stereo not given)
GI50 (XF498): > 100 µM (inactive) | GI50 (KM-20L2): > 100 µM (inactive) | GI50 (SNB-78): > 100 µM (inactive) | GI50 (DMS-273): > 100 µM (inactive) | GI50 (M19-MEL): > 100 µM (inactive) | GI50 (DMS-114): > 100 µM (inactive) | GI50 (LXFL 529): > 100 µM (inactive)

N#CCCN(CCC#N)c1ccc(/C=C2\N=C(CN3C(=O)c4ccccc4C3=O)OC2=O)cc1
GI50 (RXF 631): > 100 µM (inactive) | GI50 (XF498): > 100 µM (inactive) | GI50 (KM-20L2): > 100 µM (inactive) | GI50 (DMS-273): > 100 µM (inactive) | GI50 (M19-MEL): > 100 µM (inactive) | GI50 (DMS-114): > 100 µM (inactive) | GI50 (LXFL 529): > 100 µM (inactive)

Cn1c2ccccc2c(=O)c2c([N+](=O)[O-])ccc(NCCN)c21
GI50 (XF498): 15.1 µM (inactive) | GI50 (KM-20L2): 10.1 µM (inactive) | GI50 (SNB-78): 14.5 µM (inactive) | GI50 (DMS-273): 3.86 µM (inactive) | GI50 (HOP-18): 13.3 µM (inactive) | GI50 (M19-MEL): 13 µM (inactive) | GI50 (DMS-114): 11.5 µM (inactive) | GI50 (LXFL 529): 8.63 µM (inactive)

COC1=CC(=O)C2C(C1=O)C(c1ccc(OC)c(OC)c1)[C@H]2C (stereo not given in full)
GI50 (RXF 631): 16.4 µM (inactive) | GI50 (XF498): 16.2 µM (inactive) | GI50 (KM-20L2): 68.9 µM (inactive) | GI50 (SNB-78): > 100 µM (inactive) | GI50 (DMS-273): 23.7 µM (inactive) | GI50 (HOP-18): 20.7 µM (inactive) | GI50 (M19-MEL): 20.8 µM (inactive) | GI50 (DMS-114): 19.5 µM (inactive) | GI50 (LXFL 529): 17.3 µM (inactive)

CCOc1ccc(/C=C/c2cc(OC)c(OC)c(OC)c2)cc1
GI50 (RXF 631): 0.879 µM (active) | GI50 (XF498): 4.4 µM (inactive) | GI50 (KM-20L2): 0.82 µM (active) | GI50 (SNB-78): 0.341 µM (active) | GI50 (DMS-273): 0.548 µM (active) | GI50 (HOP-18): > 75.2 µM (inactive) | GI50 (M19-MEL): 3.03 µM (inactive) | GI50 (DMS-114): 1.36 µM (inactive) | GI50 (LXFL 529): 0.809 µM (active)

COc1cc(Cl)cc(O)c(=O)c1OC
GI50 (XF498): > 59.8 µM (inactive) | GI50 (KM-20L2): 37.9 µM (inactive) | GI50 (SNB-78): 16.9 µM (inactive) | GI50 (DMS-273): 32.2 µM (inactive) | GI50 (HOP-18): 71.6 µM (inactive) | GI50 (M19-MEL): 45.8 µM (inactive) | GI50 (DMS-114): 24 µM (inactive) | GI50 (LXFL 529): 53.3 µM (inactive)

O=C1c2ccccc2C2(O)Nc3cc(O)ccc3C12O (stereo not given)
GI50 (RXF 631): > 100 µM (inactive) | GI50 (KM-20L2): > 100 µM (inactive) | GI50 (SNB-78): > 100 µM (inactive) | GI50 (DMS-273): > 100 µM (inactive) | GI50 (HOP-18): > 100 µM (inactive) | GI50 (DMS-114): > 100 µM (inactive) | GI50 (LXFL 529): > 100 µM (inactive)

COC(=O)c1cc(O)ccc1O [METHYL 2,5-DIHYDROXYBENZOATE]
GI50 (RXF 631): > 100 µM (inactive) | GI50 (XF498): > 100 µM (inactive) | GI50 (SNB-78): > 100 µM (inactive) | GI50 (DMS-273): > 100 µM (inactive) | GI50 (M19-MEL): > 100 µM (inactive) | GI50 (DMS-114): > 100 µM (inactive) | GI50 (LXFL 529): > 100 µM (inactive)

CCCCCCCCCCCC[N+]12CC[N+](CCN)(CC1)CC2
GI50 (RXF 631): > 100 µM (inactive) | GI50 (XF498): > 100 µM (inactive) | GI50 (KM-20L2): 62.4 µM (inactive) | GI50 (SNB-78): 77.8 µM (inactive) | GI50 (DMS-273): 14.8 µM (inactive) | GI50 (HOP-18): 75.3 µM (inactive) | GI50 (M19-MEL): > 100 µM (inactive) | GI50 (DMS-114): 34.1 µM (inactive) | GI50 (LXFL 529): 81.7 µM (inactive)

NCCCCCS(=O)(=O)O
GI50 (RXF 631): > 100 µM (inactive) | GI50 (KM-20L2): > 100 µM (inactive) | GI50 (SNB-78): > 100 µM (inactive) | GI50 (DMS-273): > 100 µM (inactive) | GI50 (HOP-18): > 100 µM (inactive) | GI50 (M19-MEL): > 100 µM (inactive) | GI50 (DMS-114): > 100 µM (inactive) | GI50 (LXFL 529): > 100 µM (inactive)

C1=CC=C2NCCCCCCC/N=C3/C=CC=CC=C3NCCCCCCC/N=C\2C=C1
GI50 (RXF 631): 13 µM (inactive) | GI50 (XF498): > 100 µM (inactive) | GI50 (KM-20L2): 30.5 µM (inactive) | GI50 (DMS-273): 19.1 µM (inactive) | GI50 (M19-MEL): > 100 µM (inactive) | GI50 (LXFL 529): > 100 µM (inactive)
